Experimental findings from ChEMBL document CHEMBL1140078 (J Med Chem, 2008) are described below.

A short description of data set [1]: in vitro. To be noted: CD1, mouse, liver microsomes. On the technique in general: Liver microsomes are vesicles of endoplasmic reticulum, rich in cytochrome P450 enzymes.
Description: Metabolic stability in CD1 mouse liver microsomes at 10 uM after 30 mins
Data set [2] is described as follows: in vitro. To be noted: human, liver microsomes.
Description: Metabolic stability in human liver microsomes at 10 uM after 30 mins
Data set [3] is described as follows: in vivo. To be noted: CD1, mouse, po, 10 mg/kg.
Data set [4] in a line: in vivo. To be noted: rat, po, 10 mg/kg.
Data set [5] can be described thus: Aqueous solubility at pH 7.4 by turbidimetric assay. It is filed as physicochemical.
Data set [6] addresses Phosphatidylinositol 4,5-bisphosphate 3-kinase catalytic subunit alpha isoform (Homo sapiens, UniProt P42336).
Description: Inhibition of human recombinant PI3K p110alpha expressed in Sf9 cells coexpressing p85alpha by radiometric scintillation proximity assay

Phosphatidylinositol 4,5-bisphosphate 3-kinase catalytic subunit alpha isoform, sequence (P42336 whole entry, canonical isoform): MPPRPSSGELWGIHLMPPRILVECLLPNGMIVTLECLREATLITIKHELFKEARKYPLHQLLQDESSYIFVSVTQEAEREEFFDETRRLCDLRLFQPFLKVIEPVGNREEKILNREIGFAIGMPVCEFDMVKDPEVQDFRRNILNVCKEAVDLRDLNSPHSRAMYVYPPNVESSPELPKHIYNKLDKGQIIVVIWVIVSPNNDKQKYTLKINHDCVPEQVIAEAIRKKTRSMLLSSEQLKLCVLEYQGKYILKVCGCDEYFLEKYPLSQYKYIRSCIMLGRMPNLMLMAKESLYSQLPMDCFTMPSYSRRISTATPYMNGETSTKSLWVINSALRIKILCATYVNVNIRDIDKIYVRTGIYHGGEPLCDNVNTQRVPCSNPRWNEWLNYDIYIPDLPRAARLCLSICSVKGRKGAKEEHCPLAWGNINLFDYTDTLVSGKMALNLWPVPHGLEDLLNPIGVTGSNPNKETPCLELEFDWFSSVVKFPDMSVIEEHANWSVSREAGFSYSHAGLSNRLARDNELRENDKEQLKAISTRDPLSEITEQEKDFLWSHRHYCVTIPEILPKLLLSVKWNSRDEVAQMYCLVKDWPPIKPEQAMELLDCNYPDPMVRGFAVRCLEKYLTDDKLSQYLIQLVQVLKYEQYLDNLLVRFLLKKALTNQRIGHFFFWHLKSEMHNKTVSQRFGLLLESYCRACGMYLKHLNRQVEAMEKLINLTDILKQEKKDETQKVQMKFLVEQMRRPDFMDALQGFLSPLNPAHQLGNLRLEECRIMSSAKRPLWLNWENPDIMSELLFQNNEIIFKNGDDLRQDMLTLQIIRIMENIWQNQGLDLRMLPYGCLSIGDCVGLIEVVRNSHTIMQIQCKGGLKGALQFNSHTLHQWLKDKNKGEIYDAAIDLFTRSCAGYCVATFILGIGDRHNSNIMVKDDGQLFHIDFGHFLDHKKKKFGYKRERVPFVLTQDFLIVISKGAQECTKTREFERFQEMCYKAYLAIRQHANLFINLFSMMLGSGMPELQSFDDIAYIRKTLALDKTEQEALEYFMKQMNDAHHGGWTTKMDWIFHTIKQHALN

As for `Cc1cc2nc(-c3cccc(O)c3)nc(N3CCOCC3)c2s1`, the share remaining (commonly the share of the starting amount still present when the sample was taken) at 0.5 h, 10 µM in data set [1] is 64%.
Consider `CN1CCN(Cc2cc3nc(-c4cccc5[nH]ncc45)nc(N4CCOCC4)c3s2)CC1`, for which the fraction remaining at 0.5 h, 10 µM in data set [2] and in data set [1] was 81% in each case. For the same compound, the bioavailability (as a rule, the share of a dose that reaches the circulation, judged against a reference dose that is usually intravenous) in data set [3] is 31%; in data set [4], 37%.
For `COCCN(C)Cc1cc2nc(-c3cccc(O)c3)nc(N3CCOCC3)c2s1`, the fraction remaining at 0.5 h, 10 µM in data set [2] was determined as 57%; in data set [1], 13%. Besides, the kinetic solubility (in general, solubility judged after dilution from a stock solution rather than from solid) in data set [5] is more than 100 µM.
`c1cc2nc(-c3ccc4cn[nH]c4c3)nc(N3CCOCC3)c2s1`: the midpoint of inhibition in data set [6], the IC50, lay at 2450 nM.
With `CN1CCN(Cc2cc3nc(-c4cccc(O)c4)nc(N4CCOCC4)c3s2)CC1`, the amount remaining at 0.5 h, 10 µM in data set [2] and in data set [1] was 85% each time. Further, the bioavailability worked out at 10% in data set [3] and 2% in data set [4]. The compound also gave a solubility (kinetic) in data set [5] of more than 100 µM.
As to `OCCN1CCN(Cc2cc3nc(-c4cccc(O)c4)nc(N4CCOCC4)c3s2)CC1`, the share remaining at 0.5 h, 10 µM in data set [2] and in data set [1] was 90% each time. In addition, the bioavailability came out at 7% in data set [3] and 0% in data set [4]. The same compound had a kinetic solubility in data set [5] of more than 100 µM.
As for `Oc1cccc(-c2nc(N3CCOCC3)c3sccc3n2)c1`, the results for the fraction remaining at 0.5 h, 10 µM in data set [2] and in data set [1] were 32% and 25%, respectively.
As for `Cc1csc2c(N3CCOCC3)nc(-c3cccc(O)c3)nc12`, the amount remaining at 0.5 h, 10 µM stood at 51% in data set [2] and 5% in data set [1]. Moreover, in data set [6], the IC50 (commonly the midpoint of a concentration-inhibition curve) came to 21 nM.
Take `CN(C)Cc1cc2nc(-c3cccc(O)c3)nc(N3CCOCC3)c2s1`: the results for the amount remaining at 0.5 h, 10 µM in data set [2] and in data set [1] were 74% and 32%, respectively. In data set [3], the bioavailability turned out to be 11%.
